Patent publication US8080371B2, “Markers for addiction” (The Washington University, priority 2006, dated 2011)

Columns and labels:
[1] = test system: α4β2α5N398 nAChR heterologously expressed in HEK293T cells; test: cell-based; design: species or system mouse; conditions: p<0.0005
Experimental: (§1) HEK293T cells were maintained at 37° C. in a humidified, 5% CO2 environment in Dulbecco's modified Eagle's medium (high glucose, no pyruvate) (DMEM), 10% heat-inactivated fetal bovine serum and antibiotic/antimycotic (100 U/mL penicillin, 100 μg/mL streptomycin and 0.25 μg/mL amphotericin B). Culture reagents were purchased from either Biowhittaker (East Rutherford, N.J., USA) or Invitrogen (Carlsbad, Calif., USA).
(§2) Agonist-evoked changes in intracellular calcium was performed using an aequorin-based luminescence assay as previously described (Karadsheh et al., 2004). HEK293T cells were seeded onto six-well plates (1.5×10^6 cells/well) and were transfected the following day with plasmids (0.25 μg/well for each plasmid) containing a human codon-optimized aequorin cDNA (Vernon and Printen 2002), the mouse α4 and β2 cDNAs and either the wild-type mouse α5 cDNA (D398) or a mouse α5 cDNA in which D398 was mutated to N398. Transfection was performed using either the LipofectAmine Plus Reagent (Invitrogen) or Fugene HD transfection reagent (Roche, Indianapolis, Ind.) as recommended by the manufacturers. […]
(§3) For the epibatidine concentration-response curves, 50 μL of cells were added to each well of a 96-well opaque white plate and placed in a Victor3V plate reader (Perkin Elmer). Following a 1 second baseline read, 50 μl epibatidine was injected onto each sample and luminescence was recorded at 0.2 s intervals for 20 s immediately following the addition of agonist. At the completion of the agonist stimulation, 100 μL of a solution containing 0.1% Triton X-100 and 100 mM CaCl2 was injected into each well and luminescence was recorded for 5 s at 0.1 s intervals. In order to control for differences in cell number per well as well as variation in transfection efficiency and coelenterazine loading, agonist responses were normalized by dividing the maximal peak value for the agonist-stimulated luminescence (L) by the total peak luminescence value (Lmax) (maximal peak agonist-stimulated luminescence+maximal peak luminescence resulting from cell lysis in the presence of high calcium).

[2] = target: T1, α4β2α5N398 nAChR heterologously expressed in HEK293T cells (Mus musculus, UniProt O70174+Q2MKA5+Q9ERK7, D397N); test: cell-based
T1 construct: expressed in transfected cells; host or cells: HEK293T
T1 sequence (Q2MKA5 30-467 D397N): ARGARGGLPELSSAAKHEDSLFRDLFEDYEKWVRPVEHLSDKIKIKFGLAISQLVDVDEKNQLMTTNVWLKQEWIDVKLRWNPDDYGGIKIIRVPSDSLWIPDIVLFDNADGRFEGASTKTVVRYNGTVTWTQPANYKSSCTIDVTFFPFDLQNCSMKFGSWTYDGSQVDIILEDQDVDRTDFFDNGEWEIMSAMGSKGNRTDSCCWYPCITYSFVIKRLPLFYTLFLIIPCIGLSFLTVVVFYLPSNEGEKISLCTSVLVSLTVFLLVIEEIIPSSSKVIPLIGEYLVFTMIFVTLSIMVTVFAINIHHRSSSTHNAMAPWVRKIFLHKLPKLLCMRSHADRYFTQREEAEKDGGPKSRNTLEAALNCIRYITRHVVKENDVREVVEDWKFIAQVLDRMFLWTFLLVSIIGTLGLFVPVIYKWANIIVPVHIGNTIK
T1 sequence (O70174 31-629): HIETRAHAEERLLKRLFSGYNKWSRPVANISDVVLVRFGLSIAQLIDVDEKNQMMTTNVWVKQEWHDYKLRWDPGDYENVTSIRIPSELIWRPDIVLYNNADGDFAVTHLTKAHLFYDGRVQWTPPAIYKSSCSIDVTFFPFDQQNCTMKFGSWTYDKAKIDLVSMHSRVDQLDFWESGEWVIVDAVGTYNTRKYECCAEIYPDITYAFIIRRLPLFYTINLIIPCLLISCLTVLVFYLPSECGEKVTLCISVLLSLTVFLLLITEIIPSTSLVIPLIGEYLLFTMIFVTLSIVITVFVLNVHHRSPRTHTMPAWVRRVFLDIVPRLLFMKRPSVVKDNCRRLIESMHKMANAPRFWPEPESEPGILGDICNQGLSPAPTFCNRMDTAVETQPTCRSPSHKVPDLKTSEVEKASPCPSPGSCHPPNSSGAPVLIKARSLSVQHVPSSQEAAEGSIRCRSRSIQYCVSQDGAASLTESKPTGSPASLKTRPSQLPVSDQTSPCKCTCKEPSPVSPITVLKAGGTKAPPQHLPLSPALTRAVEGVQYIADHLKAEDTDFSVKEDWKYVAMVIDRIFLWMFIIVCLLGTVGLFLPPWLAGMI
T1 sequence (Q9ERK7 26-501): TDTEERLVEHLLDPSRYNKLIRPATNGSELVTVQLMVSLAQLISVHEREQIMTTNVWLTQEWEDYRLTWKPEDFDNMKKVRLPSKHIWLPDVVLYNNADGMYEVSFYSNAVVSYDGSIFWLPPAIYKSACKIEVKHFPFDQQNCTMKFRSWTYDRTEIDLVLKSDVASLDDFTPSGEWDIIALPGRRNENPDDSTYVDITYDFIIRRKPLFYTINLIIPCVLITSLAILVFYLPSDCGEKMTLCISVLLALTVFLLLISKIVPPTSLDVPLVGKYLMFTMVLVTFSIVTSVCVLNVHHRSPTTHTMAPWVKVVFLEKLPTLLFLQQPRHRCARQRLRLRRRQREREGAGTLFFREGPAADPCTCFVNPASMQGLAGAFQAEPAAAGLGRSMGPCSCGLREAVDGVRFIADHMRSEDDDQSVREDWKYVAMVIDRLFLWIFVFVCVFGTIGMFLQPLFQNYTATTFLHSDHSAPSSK
Experimental: as §1, §2, §3

[3] = target: T2, α4β2α5D398 nAChR heterologously expressed in HEK293T cells (Mus musculus, UniProt O70174+Q9ERK7); test: Aequorin-based luminescence assay of agonist-evoked changes in intracellular calcium; type: cell-based
T2 construct: expressed in transfected cells; host or cells: HEK293T
T2 sequence (Q2MKA5 30-467): as the sequence (Q2MKA5 30-467 D397N) above, with N368D counted along it
T2 sequence (Q9ERK7 26-501): as the sequence (Q9ERK7 26-501) above
T2 sequence (O70174 31-629): as the sequence (O70174 31-629) above
Experimental: as §1
Agonist-evoked changes in intracellular calcium was performed using an aequorin-based luminescence assay as previously described (Karadsheh et al., 2004). […]
For the epibatidine concentration-response curves, 50 μL of cells were added to each well of a 96-well opaque white plate and placed in a Victor3V plate reader (Perkin Elmer). Following a 1 second baseline read, 50 μl epibatidine was injected onto each sample and luminescence was recorded at 0.2 s intervals for 20 s immediately following the addition of agonist. At the completion of the agonist stimulation, 100 μL of a solution containing 0.1% Triton X-100 and 100 mM CaCl2 was injected into each well and luminescence was recorded for 5 s at 0.1 s intervals. […]

[4] = cigarette smoking, background statement; cited from earlier work

Clc1ccc(C2CC3CCC2N3)cn1 (stereo not drawn) [epibatidine]
maximal response to agonist per receptor, α4β2α5N398 relative to α4β2α5D398 [1]: over two-fold higher
EC50 [2]: 0.0191 ± 0.0014 nM
maximal response to agonist per receptor ([2]; L/Lmax divided by fmol of nAChR per sample well, α4β2α5N398, mean ± SEM, N=12): 0.356±0.022
EC50 [3]: 0.0259 ± 0.0015 nM
maximal response to agonist per receptor ([3]; L/Lmax divided by fmol of nAChR per sample well, α4β2α5D398, mean ± SEM, N=12): 0.147±0.01

CN1CCCC1c1cccnc1 (stereo not drawn) [nicotine]
time to peak drug level in brain after inhalation [4]: ≤ 10 s
